Assay results reported in patent US20240246956A1, “CLASS IIA HISTONE DEACETYLASE (HDAC) DEGRADER LIGANDS AND METHODS OF USE THEREOF” (DANA-FARBER CANCER INSTITUTE, INC., priority 2021, published 2024).

Legend:
HDAC9 = target: T1, HDAC9 (Homo sapiens, UniProt Q9UKV0); assay: In vitro HDAC enzymatic assay (Reaction Biology); assay type: biochemical; conditions: dose response, FIG. 2A-2B
T1 construct: purchased Reaction Biology (Devault, PA)
Method: (§1) The in vitro HDAC enzymatic assays were performed by Reaction Biology (Devault, PA).

HDAC5 = HDAC5 (Homo sapiens, UniProt Q9UQL6); assay: In vitro HDAC enzymatic assay (Reaction Biology); assay type: biochemical; set-up: purchased Reaction Biology (Devault, PA); conditions: dose response, FIG. 2A-2B
Sequence of HDAC5 (Q9UQL6 whole entry): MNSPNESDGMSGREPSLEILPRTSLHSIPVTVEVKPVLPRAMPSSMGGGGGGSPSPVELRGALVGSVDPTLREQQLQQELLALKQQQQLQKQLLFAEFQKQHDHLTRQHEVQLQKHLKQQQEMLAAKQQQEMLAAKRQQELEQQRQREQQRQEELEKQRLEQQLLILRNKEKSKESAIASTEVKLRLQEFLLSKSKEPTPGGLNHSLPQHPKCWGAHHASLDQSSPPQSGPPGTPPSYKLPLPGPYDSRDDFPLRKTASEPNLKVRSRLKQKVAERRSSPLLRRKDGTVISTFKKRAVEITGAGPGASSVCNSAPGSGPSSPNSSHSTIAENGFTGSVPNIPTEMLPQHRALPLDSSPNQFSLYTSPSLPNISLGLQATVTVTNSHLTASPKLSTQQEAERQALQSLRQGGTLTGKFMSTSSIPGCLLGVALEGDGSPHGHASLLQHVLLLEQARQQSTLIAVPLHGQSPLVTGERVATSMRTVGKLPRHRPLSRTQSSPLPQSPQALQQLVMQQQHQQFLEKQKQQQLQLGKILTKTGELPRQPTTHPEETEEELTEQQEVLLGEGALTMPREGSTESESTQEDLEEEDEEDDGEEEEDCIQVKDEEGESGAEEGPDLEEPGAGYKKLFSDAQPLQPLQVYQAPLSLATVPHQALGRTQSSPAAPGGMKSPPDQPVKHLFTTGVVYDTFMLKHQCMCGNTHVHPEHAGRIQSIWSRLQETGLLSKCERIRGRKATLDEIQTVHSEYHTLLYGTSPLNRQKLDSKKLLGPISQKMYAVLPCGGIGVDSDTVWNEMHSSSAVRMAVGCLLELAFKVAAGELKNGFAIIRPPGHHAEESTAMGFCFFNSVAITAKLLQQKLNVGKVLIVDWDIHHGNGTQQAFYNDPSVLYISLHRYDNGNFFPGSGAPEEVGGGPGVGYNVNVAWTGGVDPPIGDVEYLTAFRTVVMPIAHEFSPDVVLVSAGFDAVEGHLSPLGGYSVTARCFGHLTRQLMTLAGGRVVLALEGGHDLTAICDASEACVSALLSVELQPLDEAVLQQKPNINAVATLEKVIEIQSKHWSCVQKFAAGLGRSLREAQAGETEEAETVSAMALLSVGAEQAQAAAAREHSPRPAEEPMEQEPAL
Method: as §1

HDAC7 [1] = target: T2, HDAC7 (Homo sapiens, UniProt Q8WUI4); assay: In vitro HDAC enzymatic assay (Reaction Biology); assay type: biochemical; set-up: purchased Reaction Biology (Devault, PA); conditions: dose response, FIG. 2A-2B
T2 sequence (Q8WUI4 1-952): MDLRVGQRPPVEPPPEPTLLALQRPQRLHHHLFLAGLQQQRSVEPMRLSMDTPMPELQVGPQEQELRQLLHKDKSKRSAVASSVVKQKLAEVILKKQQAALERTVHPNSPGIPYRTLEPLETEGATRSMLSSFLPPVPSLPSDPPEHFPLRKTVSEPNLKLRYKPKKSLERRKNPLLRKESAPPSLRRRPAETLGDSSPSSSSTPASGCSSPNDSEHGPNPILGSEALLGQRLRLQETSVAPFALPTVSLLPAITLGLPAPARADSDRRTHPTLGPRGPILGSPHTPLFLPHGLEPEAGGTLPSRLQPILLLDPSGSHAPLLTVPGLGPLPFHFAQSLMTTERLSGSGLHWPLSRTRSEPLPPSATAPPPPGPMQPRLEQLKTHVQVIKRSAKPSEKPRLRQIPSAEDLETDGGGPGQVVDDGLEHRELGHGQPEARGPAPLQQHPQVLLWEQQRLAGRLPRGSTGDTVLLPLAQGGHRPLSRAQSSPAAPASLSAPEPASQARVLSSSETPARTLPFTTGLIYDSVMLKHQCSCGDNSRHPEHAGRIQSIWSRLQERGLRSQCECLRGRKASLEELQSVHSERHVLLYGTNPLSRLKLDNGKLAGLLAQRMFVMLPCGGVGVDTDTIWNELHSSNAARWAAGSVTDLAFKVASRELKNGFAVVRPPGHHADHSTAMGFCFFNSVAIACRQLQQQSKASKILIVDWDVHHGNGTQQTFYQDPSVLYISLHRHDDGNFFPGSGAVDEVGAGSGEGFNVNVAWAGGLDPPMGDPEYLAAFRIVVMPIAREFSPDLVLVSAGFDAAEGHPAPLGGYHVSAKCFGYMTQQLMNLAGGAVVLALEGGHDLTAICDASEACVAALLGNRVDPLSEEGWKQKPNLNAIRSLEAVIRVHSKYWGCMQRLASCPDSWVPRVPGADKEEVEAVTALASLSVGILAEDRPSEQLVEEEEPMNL
Method: as §1

HDAC7 [2] = target: T2, HDAC7; assay: Global quantitative proteomics, change in protein abundance in Kelly cells; assay type: cell-based; set-up: endogenous in cells; host or cells: Kelly cells; conditions: 1 μM, 5-hour treatment, vs DMSO, FIG. 3
Method: Cells were washed once with phosphate-buffered saline (PBS), harvested with CellstripperTM (Corning®), washed two additional times with PBS and snap frozen in liquid nitrogen. […] Proteins were precipitated using methanol/chloroform in Donovan et al., Elife 7:e38430 (2018). The precipitated protein was resuspended in 4 M Urea, 50 mM HEPES pH 7.4, followed by dilution to 1 M urea with the addition of 200 mM EPPS, pH 8. Proteins were first digested with LysC (1:50: enzyme:protein) for 12 hours at room temperature. The LysC digestion was diluted to 0.5 M Urea with 200 mM EPPS pH 8 followed by digestion with trypsin (1:50: enzyme:protein) for 6 hours at 37° C. Tandem mass tag (TMT) reagents (Thermo Fisher Scientific) were dissolved in anhydrous acetonitrile (ACN) according to manufacturer's instructions. Anhydrous ACN was added to each peptide sample to a final concentration of 30% v/v, and labeling was induced with the addition of TMT reagent to each sample at a ratio of 1:4 peptide:TMT label. The 11-plex labeling reactions were performed for 1.5 hours at room temperature and the reaction quenched by the addition of hydroxylamine to a final concentration of 0.3% for 15 minutes at room temperature. The sample channels were combined at a 1:1 ratio, desalted using C18 solid phase extraction cartridges (Waters®) and analyzed by LC-MS for channel ratio comparison. Samples were then combined using the adjusted volumes determined in the channel ratio analysis and dried down in a speed vacuum. The combined sample was then resuspended in 1% formic acid, and acidified (pH 2-3) before being subjected to desalting with C18 SPE (Sep-Pak®-, Waters®). […] The 96 resulting fractions were then pooled in a non-contiguous manner into 24 fractions and these fractions were used for subsequent mass spectrometry analysis. Data were collected using an Orbitrap FusionTM LumosTM mass spectrometer (Thermo Fisher Scientific, San Jose, CA, USA) coupled with a […] pump (Thermo Fisher Scientific). Peptides were separated on an EasySprayTM ES803.rev2 75 μm inner diameter microcapillary column (ThermoFisher Scientific). Peptides were separated using a 190 min gradient of 6-27% acetonitrile in 1.0% formic acid with a flow rate of 300 nL/min. Each analysis used an MS3-based TMT method as described in McAlister et al., Anal. Chem. 86(14):7150-7158 (2014). The data were acquired using a mass range of m/z 340-1350, resolution 120,000, automatic gain control (AGC) target 1×10^6, maximum injection time 100 ms, dynamic exclusion of 120 seconds for the peptide measurements in the Orbitrap FusionTM LumosTM mass spectrometer. Data dependent MS2 spectra were acquired in the ion trap with a normalized collision energy (NCE) set at 55%, AGC target set to 1.5×10^5 and a maximum injection time of 150 ms. MS3 scans were acquired in the Orbitrap FusionTM LumosTM mass spectrometer with a higher energy collision dissociation (HCD) set to 55%, AGC target set to 1.5×10^5, maximum injection time of 150 ms, resolution at 50,000 and with a maximum synchronous precursor selection (SPS) precursors set to 10. Proteome Discoverer 2.2 (Thermo Fisher Scientific) was used for .RAW file processing and controlling peptide and protein level false discovery rates, assembling proteins from peptides, and protein quantification from peptides. MS/MS spectra were searched against a Swissprot human database (December 2016) with both the forward and reverse sequences. […] TMT reporter ion intensities were measured using a 0.003 Da window around the theoretical m/z for each reporter ion in the MS3 scan. […] Reporter ion intensities were normalized and scaled using in-house scripts in the R framework. Statistical analysis was carried out using the limma package within the R framework as described in Ritchie et al., Nucleic Acids Res. 43(7):e47 (2015).

HDAC4 = HDAC4 (Homo sapiens, UniProt P56524); assay: In vitro HDAC enzymatic assay (Reaction Biology); assay type: biochemical; set-up: purchased Reaction Biology (Devault, PA); conditions: dose response, FIG. 2A-2B
Sequence of HDAC4 (P56524 whole entry): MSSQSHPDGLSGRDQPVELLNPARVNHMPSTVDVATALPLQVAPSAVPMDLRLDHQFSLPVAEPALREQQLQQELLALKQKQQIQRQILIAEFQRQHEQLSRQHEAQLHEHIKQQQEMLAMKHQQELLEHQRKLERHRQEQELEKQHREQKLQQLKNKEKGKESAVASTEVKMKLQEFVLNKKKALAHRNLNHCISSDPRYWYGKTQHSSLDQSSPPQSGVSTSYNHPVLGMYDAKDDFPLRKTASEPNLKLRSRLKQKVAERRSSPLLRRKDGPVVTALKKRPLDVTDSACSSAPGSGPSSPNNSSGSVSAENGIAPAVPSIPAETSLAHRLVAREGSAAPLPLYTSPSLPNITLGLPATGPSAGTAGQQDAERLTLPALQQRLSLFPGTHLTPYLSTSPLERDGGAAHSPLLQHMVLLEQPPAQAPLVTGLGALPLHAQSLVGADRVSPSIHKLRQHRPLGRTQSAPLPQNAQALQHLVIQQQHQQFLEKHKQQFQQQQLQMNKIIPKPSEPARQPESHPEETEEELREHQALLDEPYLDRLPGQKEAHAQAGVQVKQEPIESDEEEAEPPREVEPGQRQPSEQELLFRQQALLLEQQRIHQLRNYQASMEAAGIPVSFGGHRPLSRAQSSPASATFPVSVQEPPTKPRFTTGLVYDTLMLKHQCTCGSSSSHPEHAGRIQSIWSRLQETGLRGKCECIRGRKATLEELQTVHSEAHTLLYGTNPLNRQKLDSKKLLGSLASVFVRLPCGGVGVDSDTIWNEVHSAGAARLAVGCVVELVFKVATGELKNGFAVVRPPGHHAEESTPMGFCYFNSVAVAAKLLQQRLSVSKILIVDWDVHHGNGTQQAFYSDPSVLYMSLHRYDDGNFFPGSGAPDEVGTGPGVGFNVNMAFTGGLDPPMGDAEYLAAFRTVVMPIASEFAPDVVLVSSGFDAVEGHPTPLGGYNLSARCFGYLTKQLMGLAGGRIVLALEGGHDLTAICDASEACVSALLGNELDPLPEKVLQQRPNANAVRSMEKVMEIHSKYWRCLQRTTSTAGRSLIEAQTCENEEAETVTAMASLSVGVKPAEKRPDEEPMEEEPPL
Method: as §1

T1 sequence (Q9UKV0 whole entry): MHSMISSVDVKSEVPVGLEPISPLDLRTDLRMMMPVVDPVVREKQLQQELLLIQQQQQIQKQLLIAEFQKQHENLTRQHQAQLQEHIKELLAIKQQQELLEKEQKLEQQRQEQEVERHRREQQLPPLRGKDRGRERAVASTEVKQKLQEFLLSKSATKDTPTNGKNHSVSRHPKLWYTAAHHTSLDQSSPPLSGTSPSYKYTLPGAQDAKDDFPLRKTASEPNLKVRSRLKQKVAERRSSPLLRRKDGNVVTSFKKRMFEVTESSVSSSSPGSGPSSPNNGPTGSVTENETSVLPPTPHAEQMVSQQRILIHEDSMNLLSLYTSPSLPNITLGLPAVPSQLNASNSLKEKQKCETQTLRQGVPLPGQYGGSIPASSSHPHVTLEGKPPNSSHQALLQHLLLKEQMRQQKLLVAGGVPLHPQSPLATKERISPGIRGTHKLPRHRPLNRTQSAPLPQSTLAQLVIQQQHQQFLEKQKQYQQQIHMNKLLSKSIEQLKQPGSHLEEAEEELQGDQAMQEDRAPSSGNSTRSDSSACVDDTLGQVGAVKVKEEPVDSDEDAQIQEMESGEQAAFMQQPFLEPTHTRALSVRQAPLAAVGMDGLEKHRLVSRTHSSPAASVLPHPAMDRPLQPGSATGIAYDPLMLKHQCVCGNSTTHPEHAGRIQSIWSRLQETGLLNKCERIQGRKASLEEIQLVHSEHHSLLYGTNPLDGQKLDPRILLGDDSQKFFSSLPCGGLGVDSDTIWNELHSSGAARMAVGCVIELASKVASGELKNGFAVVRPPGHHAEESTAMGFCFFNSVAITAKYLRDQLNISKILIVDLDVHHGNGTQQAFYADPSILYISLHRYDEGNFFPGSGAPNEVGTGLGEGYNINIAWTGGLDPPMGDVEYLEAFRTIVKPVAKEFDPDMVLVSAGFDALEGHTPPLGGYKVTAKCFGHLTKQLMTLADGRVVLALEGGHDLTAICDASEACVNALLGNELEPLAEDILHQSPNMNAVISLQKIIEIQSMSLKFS

| Structure (SMILES) | inhibition of HDAC9 (HDAC9) | inhibition of HDAC5 (HDAC5) | inhibition of HDAC7 (HDAC7 [1]) | protein expression level of HDAC7 (HDAC7 [2]) | inhibition of HDAC4 (HDAC4) |
| --- | --- | --- | --- | --- | --- |
| O=C1CCC(N2C(=O)c3cccc(NCCCCCCN4CCC(CNC(=O)c5cccc(-c6noc(C(F)(F)F)n6)c5)(c5nc(-c6ccccc6)cs5)CC4)c3C2=O)C(=O)N1 (stereo not shown) [Compound 1] | inhibited | inhibited | inhibited | selective reduction in protein expression level | inhibited |
| CCN(CCNc1cccc2c1C(=O)N(C1CCC(=O)NC1=O)C2=O)C[C@@H](C)NC(=O)c1ccc(-c2noc(C(F)(F)F)n2)cc1 (stereo partly drawn) [Compound 16, N-((2R)-1-((2-((2-(2,6-dioxopiperidin-3-yl)-1,3-dioxoisoindolin-4-yl)amino)ethyl)(ethyl)amino)propan-2-yl)-4-(5-(trifluoromethyl)-1,2,4-oxadiazol-3-yl)benzamide] | inhibited | inhibited | inhibited | reduction in protein expression level | inhibited |
